Test systems include HS 578T breast; NCI/ADR-RES ovarian; KM12 colon; OVCAR-4 ovarian; A498 renal; CAKI-1 renal; HOP-62 NSCLC; CCRF-CEM leukemia; SNB-75 CNS; IGROV1 ovarian.
What all share (assay): inhibition of tumour cell growth, NCI panel, 48 h

Structures are written as SMILES. “And” between values parts separate entries of the source, which are not always exact repeats. Equal entries are not always repeated.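 Results reflect a 48-hour exposure of cells in 96-well plates to compound at five concentrations. GI50 marks 50% less growth. At the TGI there is no net growth.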 A value given as a limit tells only on which side of the number the result lay.

As to `O=c1[nH]nc(Nc2ccc(Cl)cc2)c2nnn(C3CCCCC3)c12`, the TGI with HS 578T breast is over 100 µM; with NCI/ADR-RES ovarian, over 100 µM; in the assay on KM12 colon, over 100 µM; in the assay on OVCAR-4 ovarian, 43.1 µM; with A498 renal it was over 100 µM; with CAKI-1 renal, 51.8 µM. The TGI in the assay with HOP-62 NSCLC, with CCRF-CEM leukemia, with SNB-75 CNS and in the assay with IGROV1 ovarian was over 100 µM throughout.

Turning to `Nc1c(C(=O)O)c2ccc([N+](=O)[O-])cc2c(=O)n1-c1nc2ccccc2s1`, the TGI in the assay with HS 578T breast, with NCI/ADR-RES ovarian, in the assay with KM12 colon, with OVCAR-4 ovarian, in the assay on A498 renal and in the assay on CAKI-1 renal was over 100 µM throughout. Further, the TGI with HOP-62 NSCLC, with CCRF-CEM leukemia, with SNB-75 CNS and with IGROV1 ovarian was over 100 µM each time.

On to `CCCCCCCCCCCCCCCCNc1nc(=O)n(C2OC(C)C(O)C2O)cc1F` (configuration not stated), for which the TGI in the assay with HS 578T breast turned out to be 56.3 µM; in the assay with NCI/ADR-RES ovarian it was 43.8 µM; in the assay on KM12 colon, 36.3 µM; with OVCAR-4 ovarian it was 50.8 µM; with A498 renal it was 39.1 µM; in the assay with CAKI-1 renal, 41.8 µM. Also, the TGI amounted to 33.8 µM in the assay with HOP-62 NSCLC, 42.6 µM with CCRF-CEM leukemia, 33.1 µM with SNB-75 CNS and 37.6 µM in the assay on IGROV1 ovarian.

Regarding `O=c1[nH]c2c(Nc3c4ccccc4nc4ccccc34)c([N+](=O)[O-])c(Nc3c4ccccc4nc4ccccc34)c([N+](=O)[O-])c2[nH]1`, the TGI in the assay on HS 578T breast came to 7.12 µM; with NCI/ADR-RES ovarian it was 2.24 µM; with KM12 colon, 12 µM; in the assay with OVCAR-4 ovarian it was 10.1 µM; in the assay with A498 renal it was 3.35 µM; with CAKI-1 renal it was 6.69 µM. The TGI in the assay on HOP-62 NSCLC came to 20.2 µM; with CCRF-CEM leukemia it was 6.02 µM; in the assay with SNB-75 CNS, 7.79 µM; with IGROV1 ovarian it was 5.18 µM.

For `CC1(C)CCC[C@@]2(C)C1CC[C@@]1(CO)O[C@H](C3=CC(=O)OC3O)C[C@H]12` (some centres not stated), the TGI in the assay on HS 578T breast turned out to be 38.4 µM; in the assay on NCI/ADR-RES ovarian, 36.7 µM; in the assay on KM12 colon, 36.3 µM; in the assay with OVCAR-4 ovarian it was 35.2 µM; in the assay on A498 renal, 30.1 µM; in the assay with CAKI-1 renal, 28.6 µM. Moreover, the TGI was determined as 19.3 µM with HOP-62 NSCLC, 10 µM in the assay with CCRF-CEM leukemia, 29.2 µM in the assay with SNB-75 CNS and 42.5 µM in the assay on IGROV1 ovarian.

With `Cn1c2c(c3c(=O)[nH]ncc31)Cc1ccccc1-2`, the TGI was over 100 µM in the assay on HS 578T breast; over 100 µM with NCI/ADR-RES ovarian; 66.8 µM in the assay on KM12 colon; over 100 µM in the assay with OVCAR-4 ovarian; 27.5 µM in the assay with A498 renal; over 100 µM in the assay with CAKI-1 renal. Moreover, the TGI with HOP-62 NSCLC was over 100 µM; with CCRF-CEM leukemia, over 100 µM; with SNB-75 CNS, 34.9 µM; with IGROV1 ovarian it was 33.7 µM.

Take `CC1=NC(=N)N=C(C)C1N=Nc1ccc2nc(C)[nH]c2c1` (configuration not stated): the TGI in the assay on HS 578T breast, in the assay on NCI/ADR-RES ovarian, in the assay on KM12 colon, in the assay on OVCAR-4 ovarian, in the assay with A498 renal and with CAKI-1 renal was over 100 µM throughout. Besides, the TGI in the assay on HOP-62 NSCLC, in the assay with CCRF-CEM leukemia, with SNB-75 CNS and in the assay with IGROV1 ovarian was over 100 µM in each case.

As to `COc1ccccc1N=Nc1c(O)ccc2ccccc12`, the TGI with HS 578T breast was over 100 µM; with NCI/ADR-RES ovarian, over 100 µM; in the assay with KM12 colon, over 100 µM; in the assay with OVCAR-4 ovarian it was 62.9 µM and 95.2 µM; with A498 renal it was 62.3 µM and 89.2 µM; with CAKI-1 renal, 38.8 µM and 48.6 µM. For the same compound, the TGI is 30.9 µM and 34.6 µM in the assay with HOP-62 NSCLC; over 100 µM in the assay on CCRF-CEM leukemia; 41.8 µM and 39.7 µM in the assay on SNB-75 CNS; over 100 µM in the assay with IGROV1 ovarian. For the same compound, the GI50 in the assay on OVCAR-4 ovarian is 10.2 µM and 35.4 µM; in the assay with IGROV1 ovarian, 3.93 µM and 35.4 µM.

`COc1cc(C=O)cc(C=Nc2ccc(Br)cc2)c1O`: the TGI with HS 578T breast was 5.26 µM; in the assay with NCI/ADR-RES ovarian it was over 100 µM; in the assay on KM12 colon, over 100 µM; with OVCAR-4 ovarian, over 100 µM; in the assay on A498 renal, 40.7 µM; with CAKI-1 renal, 42 µM. Also, the TGI with HOP-62 NSCLC is 55.9 µM; in the assay on CCRF-CEM leukemia it was 27.7 µM; in the assay on SNB-75 CNS it was over 100 µM; with IGROV1 ovarian, over 100 µM.

`CCNC(=S)N/N=C(/C)c1cccc(/C(C)=N\NC(=S)NCC)n1`: the TGI was over 96.6 µM in the assay with HS 578T breast; 21.1 µM in the assay on NCI/ADR-RES ovarian; over 51.1 µM in the assay on KM12 colon; over 100 µM in the assay on OVCAR-4 ovarian; 56.7 µM in the assay with A498 renal; 74.1 µM with CAKI-1 renal. Further, the TGI in the assay on HOP-62 NSCLC is over 100 µM; in the assay with CCRF-CEM leukemia, over 19.1 µM; in the assay with SNB-75 CNS it was over 73.2 µM; with IGROV1 ovarian it was over 64 µM.

Source of the values: PubChem BioAssay (NCI).
